pIC50: −log10 of the molar value.
What was measured:
[1] = biological target: Beta Secretase enzyme (BACE) (Homo sapiens (Human), UniProt P56817); experiment: In vitro enzymatic BACE FRET assay; assay type: biochemical; settings: read-out: BACE1 Enzyme assay IC50
[2] = biological target: BACE (Homo sapiens (Human), UniProt P56817); experiment: In vitro BACE cell-based assay (Aβ40 in conditioned medium, sandwich ELISA)
[3] = biological target: Cathepsin D (Cat D) (Homo sapiens (Human), UniProt P07339); experiment: In vitro enzymatic Cathepsin D (Cat D) FRET assay; assay type: biochemical; settings: read-out: CatD IC50
Chain of Cathepsin D (Cat D) (P07339 65-412, species assumed): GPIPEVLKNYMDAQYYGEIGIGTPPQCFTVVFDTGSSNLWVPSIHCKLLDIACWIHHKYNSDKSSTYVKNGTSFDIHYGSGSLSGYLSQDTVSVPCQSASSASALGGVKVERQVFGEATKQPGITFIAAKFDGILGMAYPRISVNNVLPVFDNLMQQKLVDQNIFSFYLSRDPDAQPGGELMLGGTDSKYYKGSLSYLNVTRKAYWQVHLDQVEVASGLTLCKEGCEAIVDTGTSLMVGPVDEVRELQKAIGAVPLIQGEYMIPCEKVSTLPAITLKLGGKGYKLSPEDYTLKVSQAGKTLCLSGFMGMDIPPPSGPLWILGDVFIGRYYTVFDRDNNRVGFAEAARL

Chain of Beta Secretase enzyme (BACE) (P56817 46-501): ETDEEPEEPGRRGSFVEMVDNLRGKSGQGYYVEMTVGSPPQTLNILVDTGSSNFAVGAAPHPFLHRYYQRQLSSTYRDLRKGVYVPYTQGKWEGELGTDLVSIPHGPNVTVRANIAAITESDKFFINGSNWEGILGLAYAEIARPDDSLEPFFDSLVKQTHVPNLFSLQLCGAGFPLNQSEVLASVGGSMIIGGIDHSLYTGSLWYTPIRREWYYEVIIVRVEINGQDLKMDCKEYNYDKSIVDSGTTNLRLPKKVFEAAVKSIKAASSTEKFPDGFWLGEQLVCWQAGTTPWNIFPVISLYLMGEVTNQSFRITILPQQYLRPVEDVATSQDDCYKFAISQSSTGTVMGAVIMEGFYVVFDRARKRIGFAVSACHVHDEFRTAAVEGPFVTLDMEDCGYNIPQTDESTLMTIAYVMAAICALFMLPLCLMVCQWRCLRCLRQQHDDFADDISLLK
Chain of BACE (P56817 46-501, species assumed): as the sequence (P56817 46-501) above

Compound	pIC50 [1]	IC50 [2] [µM]	pIC50 [3]
NC1=N[C@@](c2cc(NC(=O)c3nn(C(F)F)cc3Cl)cc(F)c2F)(C(F)F)[C@H]2C[C@H]2O1 [Example 114, N-(3-((1R,5S,6R)-3-amino-5-(difluoromethyl)-2-oxa-4-azabicyclo[4.1.0]hept-3-en-5-yl)-4,5-difluorophenyl)-4-chloro-1-(difluoromethyl)-1H-pyrazole-3-carboxamide]	8.01	0.0198	3.80
NC1=N[C@@](c2cc(NC(=O)c3cnc(OCc4cocn4)cn3)ccc2Cl)(C(F)F)[C@H]2C[C@H]2O1 [Example 102, N-(3-((1R,5S,6R)-3-amino-5-(difluoromethyl)-2-oxa-4-azabicyclo[4.1.0]hept-3-en-5-yl)-4-chlorophenyl)-5-(oxazol-4-ylmethoxy)pyrazine-2-carboxamide]	7.45	0.013	3.23
N#Cc1ccc(C(=O)Nc2cc(Cl)c(F)c([C@@]3(CF)N=C(N)O[C@@H]4C[C@@H]43)c2)nc1 [Example 88, N-(3-((1R,5S,6R)-3-amino-5-(fluoromethyl)-2-oxa-4-azabicyclo[4.1.0]hept-3-en-5-yl)-5-chloro-4-fluorophenyl)-5-cyanopicolinamide]	7.53	0.0098	3.52
Cc1cc(NC(=O)c2ncc(C#N)cc2Cl)cc([C@@]2(C(F)F)N=C(N)O[C@@H]3C[C@@H]32)c1F [Example 133]	7.64	0.0158	3.25
C#CCOc1cnc(C(=O)Nc2cc(F)c(F)c([C@@]3(CF)N=C(N)O[C@@H]4C[C@@H]43)c2)cn1 [Example 33, N-(3-((1R,5S,6R)-3-amino-5-(fluoromethyl)-2-oxa-4-azabicyclo[4.1.0]hept-3-en-5-yl)-4,5-difluorophenyl)-5-(prop-2-yn-1-yloxy)pyrazine-2-carboxamide]	8.27	0.0014	3.94
N#Cc1csc(C(=O)Nc2ccc(F)c([C@@]3(C(F)F)N=C(N)O[C@@H]4C[C@@H]43)c2)c1 [Example 178, N-(3-((1R,5S,6R)-3-amino-5-(difluoromethyl)-2-oxa-4-azabicyclo[4.1.0]hept-3-en-5-yl)-4-fluorophenyl)-4-cyanothiophene-2-carboxamide]	5.97	1.56	3.27
C[C@H](F)c1nc(C(=O)Nc2ccc(F)c([C@@]3(C(F)F)N=C(N)O[C@@H]4C[C@@H]43)c2)co1 (mixture of isomers) [Example 175, N-(3-((1R,5S,6R)-3-amino-5-(difluoromethyl)-2-oxa-4-azabicyclo[4.1.0]hept-3-en-5-yl)-4-fluorophenyl)-2-(1-fluoroethyl)oxazole-4-carboxamide 2,2,2-trifluoroacetate]	5.54	2.48	2.87
Cc1cc(OC(F)F)cnc1C(=O)Nc1cc(F)c(Cl)c([C@@]2(CF)N=C(N)O[C@@H]3C[C@@H]32)c1 [Example 158, N-(3-((1R,5S,6R)-3-amino-5-(fluoromethyl)-2-oxa-4-azabicyclo[4.1.0]hept-3-en-5-yl)-4-chloro-5-fluorophenyl)-5-(difluoromethoxy)-3-methylpicolinamide]	7.39	0.0383	3.64
COc1cnc(C(=O)Nc2ccc(F)c([C@@]3(C(F)F)N=C(N)O[C@@H]4C[C@@H]43)c2)c(C)n1 [Example 63, N-(3((1R,5S,6R)-3-amino-5-(difluoromethyl)-2-oxa-4-azabicyclo[4.1.0]hept-3-en-5-yl)-4-fluorophenyl)-5-methoxy-3-methylpyrazine-2-carboxamide]	7.20	0.0584	4.00
COCc1cc(Cl)cnc1C(=O)Nc1ccc(Cl)c([C@@]2(CF)N=C(N)O[C@@H]3C[C@@H]32)c1 [Example 128, N-(3-((1R,5S,6R)-3-amino-5-(fluoromethyl)-2-oxa-4-azabicyclo[4.1.0]hept-3-en-5-yl)-4-chlorophenyl)-5-chloro-3-(methoxymethyl) picolinamide]	7.29	0.0161	3.00
C[C@]1(c2cc(NC(=O)c3ccc(Cl)cn3)ccc2F)N=C(N)O[C@@H]2C[C@@H]21 [Example 68]	7.19	0.0063	3.32
NC1=N[C@](CF)(c2cc(NC(=O)c3ccc(Br)cn3)cc(F)c2F)[C@H]2C[C@H]2O1 [Example 39, N-(3-((1R,5S,6R)-3-amino-5-(fluoromethyl)-2-oxa-4-azabicyclo[4.1.0]hept-3-en-5-yl)-4,5-difluorophenyl)-5-bromopicolinamide]	7.33	0.0179	3.96
NC1=N[C@@](c2cc(NC(=O)c3coc(C#CC4CC4)n3)ccc2F)(C(F)F)[C@H]2C[C@H]2O1 [Example 151, N-(3-((1R,5S,6R)-3-amino-5-(difluoromethyl)-2-oxa-4-azabicyclo[4.1.0]hept-3-en-5-yl)-4-fluorophenyl)-2-(cyclopropylethynyl) oxazole-4-carboxamide]	4.61	1.07	3.52

Other lines, results leading:

pIC50 [1]	IC50 [2] [µM]	pIC50 [3]	Compound
5.74	2.54	3.42	CO[C@H](C)C(=O)Nc1ccc(F)c([C@@]2(C(F)F)N=C(N)O[C@@H]3C[C@@H]32)c1 (mixture of isomers) [Example 257, (R,S)-N-(3-((1R,5S,6R)-3-amino-5-(difluoromethyl)-2-oxa-4-azabicyclo[4.1.0]hept-3-en-5-yl)-4-fluorophenyl)-2-methoxypropanamide]
7.04	0.0129	3.33	Cc1ccc(NC(=O)c2ccc(Cl)cn2)cc1[C@@]1(C(F)F)N=C(N)O[C@@H]2C[C@@H]21 [Example 295, N-(3-((1R,5S,6R)-3-amino-5-(difluoromethyl)-2-oxa-4-azabicyclo[4.1.0]hept-3-en-5-yl)-4-methylphenyl)-5-chloropicolinamide]
4.61	4.07	2.99	NC1=N[C@@](c2cc(NC(=O)C3=CCCCC3)ccc2F)(C(F)F)[C@H]2C[C@H]2O1 [Example 243, N-(3-((1R,5S,6R)-3-amino-5-(difluoromethyl)-2-oxa-4-azabicyclo[4.1.0]hept-3-en-5-yl)-4-fluorophenyl)cyclohex-1-enecarboxamide]
6.30	0.0796	< 3.40	COc1cnc2c(Nc3ccc(F)c([C@@]4(C)N=C(N)O[C@@H]5C[C@@H]54)c3)nccc2c1 [Example 340, (1R,5S,6R)-5-(2-fluoro-5-((3-methoxy-1,7-naphthyridin-8-yl)amino)phenyl)-5-methyl-2-oxa-4-azabicyclo[4.1.0]hept-3-en-3-amine]
6.82	3.64	3.31	NC1=N[C@](c2cccc(NC(=O)c3ccc(Cl)cn3)c2)(C(F)(F)F)[C@@H]2C[C@@H]2O1 (racemic) [Example 208, N-(3-([1(R,S),5(S,R),6(R,S)]-3-amino-5-(trifluoromethyl)-2-oxa-4-azabicyclo[4.1.0]hept-3-en-5-yl)phenyl)-5-chloropicolinamide]
< 4.40	9.6	2.79	C[C@@]1(c2nc(NC(=O)c3ncc(Cl)cc3Cl)ccc2F)N=C(N)O[C@H]2C[C@H]21 [Example 329, N-(6-((1S,5R,6S)-3-amino-5-methyl-2-oxa-4-azabicyclo[4.1.0]hept-3-en-5-yl)-5-fluoropyridin-2-yl)-3,5-dichloropicolinamide]
8.77	0.0043	2.71	CC#CCOc1cnc(C(=O)Nc2ccc(Cl)c([C@@]3(C(F)F)N=C(N)O[C@@H]4C[C@@H]43)c2)cn1 [Example 215, N-(3-((1R,5S,6R)-3-amino-5-(difluoromethyl)-2-oxa-4-azabicyclo[4.1.0]hept-3-en-5-yl)-4-chlorophenyl)-5-(but-2-yn-1-yloxy)pyrazine-2-carboxamide]
7.77	0.151	3.70	N#Cc1cnc(C(=O)Nc2ccc(F)c([C@@]3(C(F)F)N=C(N)O[C@@H]4C[C@@H]43)c2)c(CO)c1 [Example 396, N-(3-((1R,5S,6R)-3-amino-5-(difluoromethyl)-2-oxa-4-azabicyclo[4.1.0]hept-3-en-5-yl)-4-fluorophenyl)-5-cyano-3-(hydroxymethyl)picolinamide]
6.62	0.0323	3.55	C[C@]1(c2nc(NC(=O)c3ccc(Cl)cn3)ccc2F)N=C(N)O[C@@H]2C[C@@H]21 [Example 326, N-(6-((1R,5S,6R)-3-amino-5-methyl-2-oxa-4-azabicyclo[4.1.0]hept-3-en-5-yl)-5-fluoropyridin-2-yl)-5-chloropicolinamide]
7.25	0.0192	2.81	N#Cc1ccc(C(=O)Nc2ccc(Cl)c([C@@]3(CF)N=C(N)O[C@@H]4C[C@@H]43)c2)nc1 [Example 277, N-(3-((1R,5S,6R)-3-amino-5-(fluoromethyl)-2-oxa-4-azabicyclo[4.1.0]hept-3-en-5-yl)-4-chlorophenyl)-5-cyanopicolinamide]
6.71	0.0243	3.19	COc1ccc(C(=O)Nc2ccc(Cl)c([C@@]3(CF)N=C(N)O[C@@H]4C[C@@H]43)c2)nc1 [Example 282, N-(3-((1R,5S,6R)-3-amino-5-(fluoromethyl)-2-oxa-4-azabicyclo[4.1.0]hept-3-en-5-yl)-4-chlorophenyl)-5-methoxypicolinamide]
7.33	0.0174	3.53	Cc1cc(C#N)cnc1C(=O)Nc1cc(F)c(C)c([C@]2(C(F)F)N=C(N)O[C@H]3C[C@H]32)c1 [Example 311, N-(3-((1S,5R,6S)-3-amino-5-(difluoromethyl)-2-oxa-4-azabicyclo[4.1.0]hept-3-en-5-yl)-5-fluoro-4-methylphenyl)-5-cyano-3-methylpicolinamide]
